Patent US20240025887A1, “THIENYL AND CYCLOALKYL AMINOPYRIMIDINE COMPOUNDS AS INHIBITORS OF NUAK KINASES, COMPOSITIONS AND USES THEREOF” (Ontario Institute for Cancer Research (OICR), priority 2021, published 2024)

Experiments:
Format in all cases: biochemical
NUAK2 (h) = molecular target: T1, NUAK2 (h) (Homo sapiens, UniProt Q9H093); experiment: NUAK2 enzymatic assay (radiometric, Eurofins); conditions: for IC50: radiometric, full-length recombinant enzyme
T1 construct: This assay was done radiometrically using full-length, recombinant enzyme; purchased Eurofins
T1 sequence (Q9H093 1-628): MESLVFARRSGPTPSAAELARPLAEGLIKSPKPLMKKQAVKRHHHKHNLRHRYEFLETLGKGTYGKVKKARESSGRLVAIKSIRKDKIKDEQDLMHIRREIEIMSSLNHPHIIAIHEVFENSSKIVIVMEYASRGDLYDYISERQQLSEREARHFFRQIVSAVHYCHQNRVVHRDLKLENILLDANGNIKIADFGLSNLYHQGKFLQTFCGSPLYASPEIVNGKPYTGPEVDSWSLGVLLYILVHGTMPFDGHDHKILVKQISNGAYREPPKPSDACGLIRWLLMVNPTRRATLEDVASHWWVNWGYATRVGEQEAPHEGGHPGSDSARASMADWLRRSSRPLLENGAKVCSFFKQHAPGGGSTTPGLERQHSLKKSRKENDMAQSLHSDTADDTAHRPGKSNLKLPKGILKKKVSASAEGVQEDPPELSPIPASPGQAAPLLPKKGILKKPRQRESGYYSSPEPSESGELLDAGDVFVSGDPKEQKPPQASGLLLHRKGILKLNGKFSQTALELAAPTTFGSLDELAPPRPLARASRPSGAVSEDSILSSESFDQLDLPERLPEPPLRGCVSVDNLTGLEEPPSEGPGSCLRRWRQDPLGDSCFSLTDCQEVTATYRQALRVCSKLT
Method in brief: (§1)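 Radiometric assay with full-length recombinant NUAK2 in 8 mM MOPS pH 7.0, 0.2 mM EDTA, 10 mM magnesium acetate, 300 μM peptide substrate and [33P]-ATP, 40 min at room temperature. Phosphoric acid stop, filter capture, scintillation counting. Aurora A and NUAK1 used as counter screens.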

NUAK1 = molecular target: T2, NUAK1 (Homo sapiens, UniProt O60285); experiment: NUAK1 counter screen
T2 sequence (O60285 1-661): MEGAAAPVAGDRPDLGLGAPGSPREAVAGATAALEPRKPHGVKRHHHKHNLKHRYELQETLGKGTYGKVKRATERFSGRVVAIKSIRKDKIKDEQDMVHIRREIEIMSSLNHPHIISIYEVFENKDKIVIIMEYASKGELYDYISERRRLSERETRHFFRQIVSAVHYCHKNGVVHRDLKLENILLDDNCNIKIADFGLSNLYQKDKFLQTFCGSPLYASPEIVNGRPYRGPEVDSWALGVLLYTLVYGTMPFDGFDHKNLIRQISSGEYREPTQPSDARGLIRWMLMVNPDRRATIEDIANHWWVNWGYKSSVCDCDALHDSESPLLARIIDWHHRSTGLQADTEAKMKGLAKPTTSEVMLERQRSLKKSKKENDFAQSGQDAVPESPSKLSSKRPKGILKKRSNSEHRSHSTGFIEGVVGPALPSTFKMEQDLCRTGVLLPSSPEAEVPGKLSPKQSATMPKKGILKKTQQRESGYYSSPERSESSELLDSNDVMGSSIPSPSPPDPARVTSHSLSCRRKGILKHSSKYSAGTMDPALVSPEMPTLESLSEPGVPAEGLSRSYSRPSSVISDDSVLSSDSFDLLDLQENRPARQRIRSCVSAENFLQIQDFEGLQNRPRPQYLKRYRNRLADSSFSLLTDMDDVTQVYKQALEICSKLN
Method in brief: as §1

Aurora A = molecular target: T3, Aurora A (Homo sapiens, UniProt O14965); experiment: Aurora A counter screen; conditions: read-out: AUR-A (IC50)
T3 sequence (O14965 1-403): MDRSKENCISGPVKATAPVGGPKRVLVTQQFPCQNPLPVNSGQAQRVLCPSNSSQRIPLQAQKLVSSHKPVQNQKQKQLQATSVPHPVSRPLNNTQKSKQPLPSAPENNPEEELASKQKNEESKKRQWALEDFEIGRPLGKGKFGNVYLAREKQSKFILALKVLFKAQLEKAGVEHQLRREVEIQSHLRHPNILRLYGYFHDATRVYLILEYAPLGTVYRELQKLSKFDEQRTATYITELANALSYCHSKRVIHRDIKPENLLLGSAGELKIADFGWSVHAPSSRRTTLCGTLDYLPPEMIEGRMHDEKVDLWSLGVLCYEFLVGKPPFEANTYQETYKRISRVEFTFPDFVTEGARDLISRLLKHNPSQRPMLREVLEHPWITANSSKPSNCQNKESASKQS
Method in brief: as §1

| IC50 (NUAK2 (h)) | IC50 (NUAK1) | IC50 (Aurora A) | AUR-A (IC50, nM)/NUAK2 (IC50, nM) (NUAK2 (h); NUAK2 selectivity over Aurora-A, ratio of IC50s) | SMILES |
| --- | --- | --- | --- | --- |
| 0.1 to 10 nM | 0.1 to 10 nM | 101 to 1000 nM | – | CN1CCN(c2ccc(Nc3ncc(C(F)(F)F)c(Nc4ccsc4C(N)=O)n3)c(OC(F)F)c2)CC1 [Compound I-27, 3-((2-((2-(difluoromethoxy)-4-(4-methylpiperazin-1-yl)phenyl)amino)-5-(trifluoromethyl)pyrimidin-4-yl)amino)thiophene-2-carboxamide] |
| 11 to 100 nM | 11 to 100 nM | 101 to 1000 nM | – | CN1CCC2(CC1)CCN(c1ccc(Nc3ncc(Cl)c(Nc4ccsc4C(N)=O)n3)c(OC(F)F)c1)CC2 [Compound I-54, 3-((5-chloro-2-((2-(difluoromethoxy)-4-(9-methyl-3,9-diazaspiro[5.5]undecan-3-yl)phenyl)amino)pyrimidin-4-yl)amino)thiophene-2-carboxamide] |
| 0.1 to 10 nM | 11 to 100 nM | 11 to 100 nM | – | CC(C)N1CCN(c2ccc(Nc3ncc(Cl)c(Nc4sccc4C(N)=O)n3)c(OC(F)F)c2)CC1 [Compound I-13, 2-((5-chloro-2-((2-(difluoromethoxy)-4-(4-isopropylpiperazin-1-yl)phenyl)amino)pyrimidin-4-yl)amino)thiophene-3-carboxamide] |
| 0.1 to 10 nM | 0.1 to 10 nM | 101 to 1000 nM | – | CCN1CCN(C2CCN(c3ccc(Nc4ncc(C(F)(F)F)c(Nc5ccsc5C(N)=O)n4)c(OC(F)F)c3)CC2)CC1 [Compound I-77, 3-((2-((2-(difluoromethoxy)-4-(4-(4-ethylpiperazin-1-yl)piperidin-1-yl)phenyl)amino)-5-(trifluoromethyl)pyrimidin-4-yl)amino)thiophene-2-carboxamide] |
| 11 to 100 nM | 11 to 100 nM | 101 to 1000 nM | – | C[C@H]1CN(C2CCN(c3ccc(Nc4ncc(Cl)c(Nc5ccsc5C(N)=O)n4)c(OC(F)F)c3)CC2)CCN1C [Compound I-65, (S)-3-((5-chloro-2-((2-(difluoromethoxy)-4-(4-(3,4-dimethylpiperazin-1-yl)piperidin-1-yl)phenyl)amino)pyrimidin-4-yl)amino)thiophene-2-carboxamide] |
| 11 to 100 nM | 101 to 1000 nM | > 1000 nM | – | CN1CCN(c2ccc(Nc3ncc(Cl)c(Nc4sccc4C(N)=O)n3)c(OC(F)(F)F)c2)CC1 [Compound I-19, 2-((5-chloro-2-((4-(4-methylpiperazin-1-yl)-2-(trifluoromethoxy)phenyl)amino)pyrimidin-4-yl)amino)thiophene-3-carboxamide] |
| 11 to 100 nM | 11 to 100 nM | 101 to 1000 nM | – | CN1CCCN(C2CCN(c3ccc(Nc4ncc(Cl)c(Nc5ccsc5C(N)=O)n4)c(OC(F)F)c3)CC2)CC1 [Compound I-72, 3-((5-chloro-2-((2-(difluoromethoxy)-4-(4-(4-methyl-1,4-diazepan-1-yl)piperidin-1-yl)phenyl)amino)pyrimidin-4-yl)amino)thiophene-2-carboxamide] |
| 11 to 100 nM | 11 to 100 nM | 11 to 100 nM | – | CCN1CCN(C2CCN(c3ccc(Nc4ncc(Cl)c(Nc5ccsc5C(N)=O)n4)c(OC(F)F)c3)CC2)CC1 [Compound I-61, 3-((5-chloro-2-((2-(difluoromethoxy)-4-(4-(4-ethylpiperazin-1-yl)piperidin-1-yl)phenyl)amino)pyrimidin-4-yl)amino)thiophene-2-carboxamide] |
| 101 to 1000 nM | 101 to 1000 nM | > 1000 nM | – | CN1CCN(C2CCN(c3ccc(Nc4ncc(Cl)c(Nc5ccsc5C(N)=O)n4)c(OC(F)F)c3F)CC2)CC1 [Compound I-40, 3-((5-chloro-2-((2-(difluoromethoxy)-3-fluoro-4-(4-(4-methylpiperazin-1-yl)piperidin-1-yl)phenyl)amino)pyrimidin-4-yl)amino)thiophene-2-carboxamide] |
| 101 to 1000 nM | 101 to 1000 nM | > 1000 nM | – | CN1CCN(c2ccc(Nc3nccc(Nc4ccsc4C(N)=O)n3)c(OC(F)F)c2)CC1 [Compound I-3, 3-((2-((2-(difluoromethoxy)-4-(4-methylpiperazin-1-yl)phenyl)amino)pyrimidin-4-yl)amino)thiophene-2-carboxamide] |
| 11 to 100 nM | 11 to 100 nM | 101 to 1000 nM | – | CC(C)N1CCN(C2CCN(c3ccc(Nc4ncc(Cl)c(Nc5ccsc5C(N)=O)n4)c(OC(F)F)c3)CC2)CC1 [Compound I-62, 3-((5-chloro-2-((2-(difluoromethoxy)-4-(4-(4-isopropylpiperazin-1-yl)piperidin-1-yl)phenyl)amino)pyrimidin-4-yl)amino)thiophene-2-carboxamide] |
| 11 to 100 nM | 11 to 100 nM | 11 to 100 nM | – | NC(=O)c1sccc1Nc1nc(Nc2ccc(N3CCOCC3)cc2OC(F)F)ncc1Cl [Compound I-24, 3-((5-chloro-2-((2-(difluoromethoxy)-4-morpholinophenyl)amino)pyrimidin-4-yl)amino)thiophene-2-carboxamide] |
| 0.1 to 10 nM | 11 to 100 nM | 101 to 1000 nM | 14 | Cc1c(Nc2ncc(Cl)c(Nc3ccsc3C(N)=O)n2)ccc(N2CCN(C)CC2)c1F [Compound C-5, reference compound] |
| 11 to 100 nM | 0.1 to 10 nM | 101 to 1000 nM | – | CC(C)(C)N1CCN(C2CCN(c3ccc(Nc4ncc(Cl)c(Nc5ccsc5C(N)=O)n4)c(OC(F)F)c3)CC2)CC1 [Compound I-63, 3-((2-((4-(4-(4-(tert-butyl)piperazin-1-yl)piperidin-1-yl)-2-(difluoromethoxy)phenyl)amino)-5-chloropyrimidin-4-yl)amino)thiophene-2-carboxamide] |
| 0.1 to 10 nM | 11 to 100 nM | 101 to 1000 nM | – | CN1C[C@H]2C[C@@H]1CN2c1ccc(Nc2ncc(Cl)c(Nc3sccc3C(N)=O)n2)c(OC(F)F)c1 [Compound I-18, 2-((5-chloro-2-((2-(difluoromethoxy)-4-((1R,4R)-5-methyl-2,5-diazabicyclo[2.2.1]heptan-2-yl)phenyl)amino)pyrimidin-4-yl)amino)thiophene-3-carboxamide] |
| 11 to 100 nM | 101 to 1000 nM | 101 to 1000 nM | – | CN1CCc2cc(OC(F)F)c(Nc3ncc(Cl)c(Nc4ccsc4C(N)=O)n3)cc2C1 [Compound I-26, 3-((5-chloro-2-((6-(difluoromethoxy)-2-methyl-1,2,3,4-tetrahydroisoquinolin-7-yl)amino)pyrimidin-4-yl)amino)thiophene-2-carboxamide] |
| 11 to 100 nM | 11 to 100 nM | > 1000 nM | – | CCN1CCN(c2ccc(Nc3ncc(Cl)c(Nc4ccsc4C(N)=O)n3)c(OC(F)F)c2)CC1 [Compound I-5, 3-((5-chloro-2-((2-(difluoromethoxy)-4-(4-ethylpiperazin-1-yl)phenyl)amino)pyrimidin-4-yl)amino)thiophene-2-carboxamide] |
| 11 to 100 nM | 11 to 100 nM | 101 to 1000 nM | – | C[C@H]1CN(C)CCN1c1ccc(Nc2ncc(Cl)c(Nc3ccsc3C(N)=O)n2)c(OC(F)F)c1 [Compound I-29, (S)-3-((5-chloro-2-((2-(difluoromethoxy)-4-(2,4-dimethylpiperazin-1-yl)phenyl)amino)pyrimidin-4-yl)amino)thiophene-2-carboxamide] |
